The source of these data is ChEMBL document CHEMBL3351610, “Synthesis and biological evaluation of substituted 4-(thiophen-2-ylmethyl)-2H-phthalazin-1-ones as potent PARP-1 inhibitors” (Bioorg Med Chem Lett, 2014).

Each structure is given as a SMILES string.

Chain of Poly [ADP-ribose] polymerase 1 (P09874 whole entry): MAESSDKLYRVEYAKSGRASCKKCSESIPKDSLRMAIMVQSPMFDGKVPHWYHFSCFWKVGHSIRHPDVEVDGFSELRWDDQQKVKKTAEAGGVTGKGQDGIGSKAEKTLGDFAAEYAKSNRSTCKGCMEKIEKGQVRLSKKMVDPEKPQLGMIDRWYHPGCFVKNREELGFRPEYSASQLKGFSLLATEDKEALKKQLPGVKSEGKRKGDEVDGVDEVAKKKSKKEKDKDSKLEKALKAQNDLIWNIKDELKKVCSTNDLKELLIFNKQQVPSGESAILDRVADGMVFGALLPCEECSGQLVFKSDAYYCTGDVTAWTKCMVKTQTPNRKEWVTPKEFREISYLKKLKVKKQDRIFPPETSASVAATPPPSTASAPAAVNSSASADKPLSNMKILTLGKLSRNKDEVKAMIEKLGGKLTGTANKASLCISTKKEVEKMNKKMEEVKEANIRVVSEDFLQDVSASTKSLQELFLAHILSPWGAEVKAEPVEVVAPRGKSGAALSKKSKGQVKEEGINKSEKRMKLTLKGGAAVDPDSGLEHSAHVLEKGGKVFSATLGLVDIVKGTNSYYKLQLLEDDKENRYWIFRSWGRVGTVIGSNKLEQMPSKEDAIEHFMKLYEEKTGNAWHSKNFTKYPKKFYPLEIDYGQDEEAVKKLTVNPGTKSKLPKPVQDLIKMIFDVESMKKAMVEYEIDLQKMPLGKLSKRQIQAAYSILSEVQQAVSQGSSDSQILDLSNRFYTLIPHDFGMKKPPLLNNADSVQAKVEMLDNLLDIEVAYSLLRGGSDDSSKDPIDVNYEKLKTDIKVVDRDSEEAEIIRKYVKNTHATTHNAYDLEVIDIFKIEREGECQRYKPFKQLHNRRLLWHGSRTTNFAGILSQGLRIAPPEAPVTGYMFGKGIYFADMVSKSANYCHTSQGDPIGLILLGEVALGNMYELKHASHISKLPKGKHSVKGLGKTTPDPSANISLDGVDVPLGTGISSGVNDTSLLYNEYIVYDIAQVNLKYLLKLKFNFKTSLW

The experiment addresses Poly [ADP-ribose] polymerase 1 (Homo sapiens, UniProt P09874). In words: Inhibition of human PARP1.
The term IC50 denotes the concentration at which inhibition is half-maximal. Read a high IC50 as weaker potency in that assay. With `O=C(c1ccncc1)N1CCN(C(=O)c2csc(Cc3n[nH]c(=O)c4ccccc34)c2)CC1`, the IC50 stood at 108 nM.

In the case of `O=C(c1csc(Cc2n[nH]c(=O)c3ccccc23)c1)N1CCN(C(=O)C2CC2)CC1`, half-maximal inhibition (IC50) was put at 105 nM.

The compound `O=C(c1csc(Cc2n[nH]c(=O)c3ccccc23)c1)N1CCN(C(=O)c2cccs2)CC1` returned a concentration for half-maximal inhibition (IC50) of 10.8 nM.

Turning to `COc1ccc(CC(=O)N2CCN(C(=O)c3csc(Cc4n[nH]c(=O)c5ccccc45)c3)CC2)cc1`, the IC50 was determined as 94.9 nM.

Compound `O=C(c1csc(Cc2n[nH]c(=O)c3ccccc23)c1)N1CCN(C(=O)c2ccc3c(c2)OCO3)CC1` displayed an IC50 of 39.6 nM.

As to `O=C(c1ccc(Br)cc1)N1CCN(C(=O)c2csc(Cc3n[nH]c(=O)c4ccccc34)c2)CC1`, the concentration for half-maximal inhibition (IC50) was 72.3 nM.

Regarding `O=C(c1csc(Cc2n[nH]c(=O)c3ccccc23)c1)N1CCN(C(=O)c2ccccn2)CC1`, 46.1 nM corresponded to half-maximal inhibition (IC50).

On to `CCC(=O)N1CCN(C(=O)c2csc(Cc3n[nH]c(=O)c4ccccc34)c2)CC1`, for which the IC50 turned out to be 78.6 nM.

With `N#Cc1ccc(C(=O)N2CCN(C(=O)c3csc(Cc4n[nH]c(=O)c5ccccc45)c3)CC2)cc1`, the IC50 was 85.5 nM.

As to `CC(=O)N1CCN(C(=O)c2csc(Cc3n[nH]c(=O)c4ccccc34)c2)CC1`, the IC50 is 124 nM.
